Test results from patent US9512138B2, “Compositions and methods for treating cancer” (The Regents of the University of California, priority 2012, dated 2016).
“Also recorded” adds a separate entry of the source. Counter-ions that a name gives are not always drawn.

Columns and labels:
[1] = test system: cancer stem cells (CSC) derived from NSCLC (H157); assay: Annexin-V apoptosis assay in lung cancer stem cells; assay type: cell-based, human; settings: compared with bulk NSCLC cells, 3 independent experiments
Experimental: FIG. 3. […] A comparison is performed using bulk NSCLC cells. Results based on annexin-V assays in 3 independent experiments.
Analogues of parthenolide were prepared and purified (FIG. 8) and assessed for antitumor efficacy, to develop the best agents for clinical use. Responses of CSC-like subsets, bulk tumor cells and normal lung epithelial cells to parthenolide (PTL) analogues alone and with chemotherapy are ongoing, with assessments by TUNEL and Annexin-V assay for apoptosis (13) (FIG. 3) and cell proliferation (FIG. 4).

[2] = test system: H157 NSCLC cells (bulk and CSC-subpopulations); assay: Proliferation of NSCLC bulk cells and CSC subpopulations; assay type: cell-based, human; settings: bulk cell preparations and CSC-subpopulations; drug dose 20 micromolar; P<0.05 vs control
Text: FIG. 4. […] JD201 drug dose=20 micromolar.
Lung cancer is the leading cause of cancer death in men and women worldwide. The poor prognosis of advanced non-small cell lung cancer (NSCLC) is due, in part, to emergence of tumor resistance to chemotherapy. […] If such minute subsets of CSC drive tumor formation and drug resistance, therapies targeting the bulk tumor mass but not CSC will fail. […] We identified CD133+/ALDH+ tumor stem/progenitor cells from human lung cancer cells in vitro using established Aldefluor assays in combination with labeled anti-CD133 antibodies. […] The antitumor effect of PTL may be due to its action as a potent inhibitor of nuclear factor-KB (NF-κB), which is markedly activated by chemotherapy. To target CSC and suppress tumor progression, we synthesized and tested novel analogs of PTL with improved antitumor properties and aqueous solubility. […] Dose-dependent increments of PTL analogs increase apoptosis of CSC when compared with bulk cells. […] Using Western blots, we find that PTL congeners inhibit phosphorylation of the p65 subunit of phospho-NF-κB and activation of IKKα/β. […]
Analogues of parthenolide were prepared and purified (FIG. 8) and assessed for antitumor efficacy, to develop the best agents for clinical use. […]

[3] = test system: A549, H23, H2122 and H1975 NSCLC cells; assay: MTS cell viability/proliferation assay in NSCLC cell lines, 72 h; assay type: cell-based, human; settings: for growth inhibition at 10 μM / growth inhibition at 100 μM: A549, H23, H2122, H1975; for inhibitory activity relative to other analogues: FIG. 5, 0.1-100 μM
Experimental: FIG. 5. Parthenolide analogues JD201-JD210 suppress human lung tumor cell proliferation in vitro. A549, H23, H2122 and H1975 NSCLC cells were treated with increasing concentrations of drugs (0.1-100 μM). After 72 h cell viability was assessed by MTS assay. Viable cells are expressed as percentage of vehicle control. P<0.01 (**), versus control group, P<0.05 (*), versus control group. Natural occurring parthenolide (PTL), parthenolide analogues JD201 (DMAPT)-JD210. Parthenolide analogues inhibit female (H1975, H2122) and male (H23, A549) NSCLC cell proliferation.
To determine the effect of parthenolide analogues in lung cancer cell proliferation we tested two male (A549, H23) and two female (H2122, H1975) lung cancer cell lines with increasing concentrations of parthenolide analogues (0.1, 1, 10 and 100 μM) for 72 hours.

[4] = test system: NF-κB/p65 phosphorylation; assay: Western blot of phospho-NF-κB/p65 in H23 cells; assay type: cell-based, human; settings: for phosphorylation of the p65 subunit of NF-κB: 10 μM, 60 min (FIG. 7); for phosphorylation of NF-κB/p65: 10 µM, 60 min (FIG. 13)
Experimental: FIG. 7. […] After 60 min Western blot were performed using anti-phospho-NF-κB/p65 antibody (Cell Signaling Technology #3031). Membranes were stripped and re-probed with antibody against total NF-κB/p65 (CST #3037).
After 60 min, Western blots were done using anti-phospho-NFκB/p65 antibody (Cell Signaling).
Upon confirming that parthenolide analogues can inhibit NSCLC cell proliferation, induce cell death and enhance the cytotoxicity of chemotherapy, we began to investigate potential cellular mechanisms that may underlie this process. For example, we used Western Blot methods to determine phosphorylation of the p65 subunit of NF-κB. H23 cells were incubated in the presence of vehicle control or 10 μM concentration of the parthenolide derivatives (JD 201, 202, 203, 204) for 60 min. After treatment, cells were collected and homogenized in lysis buffer. Extracts were electrophoresed on 4-20% gradient SDS-PAGE gels and transferred to nitrocellulose membranes. Blots were probed with anti-phospho-NF-κB/p65 and NF-κB/p65 for a loading control.

A549 NSCLC xenografts = A549 NSCLC xenografts in immunodeficient mice; assay type: in vivo
MCF-7/HER2 cells = assay: Proliferation of tamoxifen-resistant MCF-7/HER2 cells (cell counts); settings: 72 hours; for proliferation of MCF-7/HER2 cells: 0.1-50 micromolar, cell counts, P<0.001 vs controls
Experimental: Assays for Tumor Cell Proliferation. […] Cell counts and viability tests (Trypan blue) will be done every 24 hr for 2-33 days. After 48-72 hr, proliferation was assessed by cell counts.

[5] = test system: NF-κB/p65 phosphorylation; assay: Western blot of cisplatin-mediated phospho-NF-κB/p65 in A549 cells; assay type: cell-based, human; settings: 5 μM cisplatin and/or 20 μM analog, time course
Experimental: FIG. 9. […] Western blots were then performed using anti-phospho-NF-κB/p65 antibody (Cell Signaling Technology #3036) and anti-phospho-IκBα antibody (CST #2859). Membranes were then stripped and reprobed with antibody against total NF-κB/p65 (CST #3987) and antibody against total IκBα (CST #4814).

[6] = test system: MCF-7/TAMR breast cancer cells; assay: Proliferation of tamoxifen-resistant MCF-7/TMR (TAM-R) cells; assay type: cell-based, human; settings: analogue at varying doses plus tamoxifen 1×10^-7 M, 48 hours; P<0.01
Experimental: MCF-7/CON cells are tamoxifen-sensitive, while MCF-7/HER2 and MCF-7/TMR cells are known to be tamoxifen-resistant (28,61,66,67). Except for TMR (64,68), cells were routinely cultured in RPMI 1640 media with 10% heat-inactivated FBS (28,64,66). For E2-free conditions, media were changed 48 h before studies to phenol-red free RPMI 1640 with 1% dextran-coated, charcoal-treated (DCC) FBS. TMR cells were derived by long-term continuous exposure of cells to 10^−7 M 4-hydroxy-tamoxifen by established methods (64,68) and were maintained with 10^−7 M 4-hydroxytamoxifen in medium. Levels of ERα and HER2 expression in these several cell lines were determined by use of Western blot methods.
Assays for Tumor Cell Proliferation. Breast tumor cells were be grown in RPMI 1640 media with 10% heat-inactivated FBS (except for TMR and TZR cells as noted above). For estrogen-free conditions, medium were changed 48 h before studies to phenol-red free RPMI 1640 with 1% dextran-coated, charcoal-treated (DCC) FBS, then treated with selected reagents. Cell counts and viability tests (Trypan blue) will be done every 24 hr for […]. After 48-72 hr, proliferation was assessed by cell counts.

SKBR3/TZR cells = assay: Proliferation of trastuzumab-resistant SKBR3/TZR cells; assay type: cell-based, human; set-up: dose or concentration left out as unconfirmed; settings: 0.1 to 50 micromolar alone or with trastuzumab, 72 hours
Experimental: Assays for Tumor Cell Proliferation. […] Cell counts and viability tests (Trypan blue) will be done every 24 hr for […]. After 48-72 hr, proliferation was assessed by cell counts.
The human breast cancer cell line SKBR3 (ATCC) was obtained from the American Type Culture Collection (ATCC). Unless otherwise stated, monolayer cultures of SKBR3 were maintained in Dulbeccos' Modified Eagle's Media (DMEM):F12 medium with 10% FBS.

ELT3 cells = assay: Proliferation of ELT3 cells (TSC-related disease model); assay type: cell-based, rat; settings: 72 hours, IIA medium with 1% FBS, cell counts
Experimental: (§1) FIG. 19. […] Cells were counted and plated and then treated with parthenolide analogue JD203 or control for 72 hours using IIA medium with 1% FBS. At the end of the experiments, cell proliferation was quantitated based on cell counts. Experimental results (n=3) shown as % control (mean±SE).
(§2) We have tested inhibitory activity of parthenolide analogues using cell models for TSC-related proliferative disease. The ELT3 cells are a TSC2-null smooth muscle-derived cell line from a rat uterine leiomyoma and often used as a model for lymphangioleiomyomatosis (LAM) and other TSC-related proliferative diseases (75,76). Angiomyolipoma cells (AML) that have inactivating mutations in both alleles of the TSC2 gene were also used as an alternate cell model (77,78). Cells were routinely cultured in IIA complete medium (50% DMEM, 50% F-12, […] NaHCO3, […] FeSO4, 50 nM sodium selenite, […] insulin, 200 nM hydrocortisone, […] transferrin, 1 nM triiodothyronine, 10 mU/ml vasopressin, 10 nM cholesterol, 10 ng/ml epidermal growth factor) containing 15% FBS. For study of proliferation, cells were incubated for 3 days in IIA medium containing 1% FBS. Results of these experiments indicate that parthenolides may also have utility in the treatment of TSC-related proliferative diseases that are not classified as malignancies.

[7] = test system: angiomyolipoma (AML) cells; assay: Proliferation of angiomyolipoma (AML) cells; assay type: cell-based; settings: 72 hours, IIA medium with 1% FBS, cell counts
Experimental: as §1, §2

Aqueous solubility = assay type: physicochemical
cancer cells = assay: Structure-activity study of antitumor activity; settings: compared to other known parthenolide derivatives such as DMAPT
Text: We have developed a set of novel analogues of parthenolide which have both improved aqueous solubility and antitumor properties. An extensive structure-activity study was done to investigate parthenolide and its analogues. […] These water-soluble compounds, for example analog JD206, may be conjugated to sugars or peptides that may be selectively targeted to cancer cells, particularly cancer stem cells.

C/C1=C\CC[C@@]2(C)O[C@H]2[C@H]2OC(=O)[C@@H](CN(C)C)[C@@H]2CC1 [JD201, (1aR,7aS,8R,10aS,Z)-8-((Dimethylamino)methyl)-1a,5-dimethyl-2,3,6,7,7a,8,10a,10b-octa-hydrooxireno[2′,3′:9,10]cyclodeca[1,2-b]furan-9(1aH)-one, fumaric acid salt, reference compound]
apoptosis of cancer stem cells (annexin-V) [1]: dose-dependent increments in apoptosis | proliferation of NSCLC cells [2]: inhibits proliferation | growth inhibition at 10 μM [3]: Significant growth inhibition | growth inhibition at 100 μM [3]: Significant growth inhibition | inhibitory activity relative to other analogues [3]: greater inhibitory activity than compounds 205 and 207 | phosphorylation of the p65 subunit of NF-κB ([4]; listed as 201): inhibit phosphory-lation of NF-κB/p65 | phosphorylation of the p65 subunit of NF-κB ([4]; listed as JD 201): reduced phosphorylation of the p65 subunit of NF-κB | phosphorylation of NF-κB/p65 [4]: inhibit phosphorylation of NF-κB/p65 | tumor progression (A549 NSCLC xenografts; oral gavage 100 mg/kg/day for 21 days vs vehicle control): reduction in tumor progression | tumor volumes (A549 NSCLC xenografts; oral gavage 100 mg/kg/day for 21 days, vehicle controls 252±31 mm^3): 55±5 mm^3 | proliferation of MCF-7/HER2 cells (MCF-7/HER2 cells): dose-dependent (0.1-50 micromolar) reduction in proliferation

C/C1=C/CC[C@@]2(C)OC2[C@H]2OC(=O)[C@@H](CN(CCO)CCO)[C@@H]2CC1.O=C(O)/C=C/C(=O)O (stereo partly drawn) [JD203, (1aR,7aS,8R,10aS,Z)-8-((Bis(2-hydroxyethyl)amino)methyl)-1a,5-dimethyl-2,3,6,7,7a,8,10a, 10b-octahydrooxireno[2′,3′:9,10]cyclodeca[1,2-b]furan-9(1aH)-one, fumaric acid salt]
growth inhibition at 10 μM [3]: Significant growth inhibition | growth inhibition at 100 μM [3]: Significant growth inhibition | inhibitory activity relative to other analogues [3]: greater inhibitory activity than compounds 205 and 207 | phosphorylation of the p65 subunit of NF-κB [4]: reduced phosphorylation of the p65 subunit of NF-κB; also recorded: inhibit phosphory-lation of NF-κB/p65 | phosphorylation of NF-κB/p65 [4]: inhibit phosphorylation of NF-κB/p65 | cisplatin-mediated phosphorylation of NF-κB/p65 [5]: inhibit cisplatin-mediated phosphorylation of NF-κB/p65 | proliferation of MCF-7/TAMR cells, combination with tamoxifen [6]: enhanced blockade of tumor cell proliferation; also recorded: promotes antitumor effects of tamoxifen | proliferation of SKBR3/TZR cells (SKBR3/TZR cells): reduces proliferation of SKBRS/TZR cells alone and in combination with trastuzumab | proliferation of ELT3 cells (ELT3 cells): inhibits proliferation | proliferation of angiomyolipoma (AML) cells [7]: inhibits proliferation | water solubility compared to DMAPT (JD201) (Aqueous solubility): improved water solubility | anticancer activity compared to DMAPT (JD201) (cancer cells): strong anticancer activity | proliferation of MCF-7/HER2 cells (MCF-7/HER2 cells): dose-dependent (0.1-50 micromolar) reduction in proliferation | proliferation of MCF-7/HER2 cells, combination with tamoxifen (MCF-7/HER2 cells; analogue 0.1 to 50 micromolar with tamoxifen 1×10^-7 M, P<0.01): greater reduction in cell proliferation than treatment with the analogue alone
